Read-outs that look alike come from different tables or passages of the source.
What was measured:
[1] = test system: Aedes aegypti (Linnaeus); test: Repellent bioassay on human skin, K & D modules, biting frequency of Aedes aegypti; format: in vivo; conditions: for repellent activity, comparison in words: pair-wise comparison alpha=0.05
[2] = test system: many species of blood-sucking arthropods; conditions: field and laboratory studies, literature, cited from earlier work
[3] = test system: Aedes albopictus; test: Repellent bioassay on human skin, K & D modules, Aedes albopictus; format: in vivo
[4] = test system: Anopheles stephensi; test: Repellent bioassay on human skin, K & D modules, Anopheles stephensi; format: in vivo
[5] = test system: Phlebotomus papatasi; test: Repellent bioassay on human skin, K & D modules, Phlebotomus papatasi; format: in vivo

CC1CCCCN1C(=O)C1CC=CCC1 (racemic) [compound 220, 1-(3-cyclohexen-1-ylcarbonyl)-2-methylpiperidine, reference compound]
proportion biting value ([1]; Ae. aegypti females on treated human skin, 4.95 μg/cm^2 skin, 2 min exposure): 0.45
repellent activity, comparison in words ([1]; Ae. aegypti, 4.95 μg/cm^2 skin): not significantly different from one another
effectiveness in reducing bites compared with deet [2]: more or as effective as the commonly used arthropod repellent deet
effectiveness in reducing bites compared with deet ([2]; listed as 220 racemate): more effective than deet

C[C@H]1CCCCN1C(=O)[C@@H]1CC=CCC1 (single isomer, unassigned) [(1S,2′S)]
times more repellent than the other stereoisomers ([1]; Ae. aegypti, 4.95 μg/cm^2 skin): 2.8-3.1 times
times more effective in suppressing bites than the racemate ([1]; Ae. aegypti, equal dose): 2.5 times
times more effective in suppressing bites than the racemate [3]: 4 times
repellent effectiveness, comparison in words [4]: most effective in repelling bites
repellent effectiveness, comparison in words [5]: most effective in repelling bites

CC1CCCCN1C(=O)C1CC=CCC1 [(1R,2′R), 1-(3-cyclohexen-1-ylcarbonyl)-2-methylpiperidine]
repellent activity, comparison in words ([1]; Ae. aegypti, 4.95 μg/cm^2 skin, listed as (1R,2′R)-220): significantly less effective as a repellent

CC1CCCCN1C(=O)C1CC=CCC1 [(1R,2′S), 1-(3-cyclohexen-1-ylcarbonyl)-2-methylpiperidine]
times more repellent than the other stereoisomers ([1]; Ae. aegypti, 4.95 μg/cm^2 skin): 1.6-1.8 times
repellent effectiveness, comparison in words [3]: more effective than the (1S,2′R) and (1R,2′R) stereoisomers

CC1CCCCN1C(=O)C1CC=CCC1 [(1S,2′R), 1-(3-cyclohexen-1-ylcarbonyl)-2-methylpiperidine]
repellent activity, comparison in words ([1]; Ae. aegypti, 4.95 μg/cm^2 skin): not significantly different from one another

Reference: patent US6562841B1, “Methods and compositions for repelling arthropods” (The United States of America as represented by the …, priority 2000, dated 2003)
